Data: ChEMBL document CHEMBL1133635, “Caspases as targets for anti-inflammatory and anti-apoptotic drug discovery” (J Med Chem, 2000)
pIC50, pKi: −log10 of the molar value. Where a SMILES comes first, the peptide text is derived from it. [ ]: non-standard residue; d: D form. ξ: configuration not given here. ξE = NC(CCC(=O)O)C(=O)O; βAla = NCCC(=O)O

How the values were obtained:
[1] = target: T1, Caspase-1 (Homo sapiens, UniProt P29466); test: Compound was evaluated for the inhibitory activity against caspase-1
T1 sequence (P29466 whole entry): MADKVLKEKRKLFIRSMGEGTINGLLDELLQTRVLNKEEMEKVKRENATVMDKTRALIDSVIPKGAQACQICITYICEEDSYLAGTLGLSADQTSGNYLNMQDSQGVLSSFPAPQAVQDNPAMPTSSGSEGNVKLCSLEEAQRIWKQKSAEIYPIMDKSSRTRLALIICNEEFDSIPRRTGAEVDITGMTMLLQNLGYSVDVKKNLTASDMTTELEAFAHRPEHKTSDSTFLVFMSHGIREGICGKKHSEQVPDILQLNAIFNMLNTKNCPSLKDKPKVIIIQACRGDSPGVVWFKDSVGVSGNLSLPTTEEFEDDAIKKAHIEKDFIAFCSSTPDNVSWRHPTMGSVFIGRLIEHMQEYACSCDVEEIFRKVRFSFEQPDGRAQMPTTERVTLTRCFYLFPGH

[2] = target: T2, Caspase-1 (Homo sapiens) (UniProt P29466)
T2 sequence (whole entry): T1 sequence (P29466 whole entry)
Description: Evaluated for dissociation constant for the inhibition of caspase-1

[3] = target: T1, Caspase-1; test: Dissociation constant for inhibition of caspase-1
[4] = target: T2, Caspase-1 (Homo sapiens); remark: listed apart in the source
Description: Evaluated for kinetic dissociation constant (kon) for the inhibition of caspase-1.

[5] = target: T3, Caspase-7 (Homo sapiens, UniProt P55210); test: Evaluated for kinetic dissociation constant […] for the inhibition of caspase-7; settings: read-out: Ki app
T3 sequence (P55210 whole entry): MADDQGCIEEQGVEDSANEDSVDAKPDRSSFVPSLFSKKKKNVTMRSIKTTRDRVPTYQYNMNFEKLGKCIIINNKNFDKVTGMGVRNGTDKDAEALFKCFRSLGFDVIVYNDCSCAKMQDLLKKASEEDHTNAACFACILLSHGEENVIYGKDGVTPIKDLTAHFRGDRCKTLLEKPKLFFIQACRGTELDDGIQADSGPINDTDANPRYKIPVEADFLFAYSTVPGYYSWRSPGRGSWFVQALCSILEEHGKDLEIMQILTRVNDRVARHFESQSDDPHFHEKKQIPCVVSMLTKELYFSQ

[6] = target: T4, Caspase-3 (Homo sapiens, UniProt P42574); test: Evaluated for the dissociation constant for the inhibition of caspase-3; settings: read-out: Ki app
T4 sequence (P42574 whole entry): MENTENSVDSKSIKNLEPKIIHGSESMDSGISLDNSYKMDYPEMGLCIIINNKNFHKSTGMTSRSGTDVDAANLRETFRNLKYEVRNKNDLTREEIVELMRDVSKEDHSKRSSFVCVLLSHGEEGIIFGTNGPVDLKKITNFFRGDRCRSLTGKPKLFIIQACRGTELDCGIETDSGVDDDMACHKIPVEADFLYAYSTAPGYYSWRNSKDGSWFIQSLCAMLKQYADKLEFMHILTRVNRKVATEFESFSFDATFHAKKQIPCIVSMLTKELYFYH

SMILES | pIC50 [1] | pKi [3] | further results
O=C(O)C[C@H](NC(=O)C(c1ccccc1)n1cccc(NC(=O)c2cccc3ccccc23)c1=O)C(=O)COc1ccccc1 (stereo partly drawn) | 8.00 | – | –
CCCCC(C(=O)N[C@@H](CC(=O)O)C(=O)COc1ccccc1)n1cncc(NC(=O)c2cccc3ccccc23)c1=O (stereo partly drawn) | 7.34 | – | –
CC(C)[C@H](NC(=O)OCc1ccccc1)C(=O)N[C@@H](C)C(=O)N[C@@H](CC(=O)O)C(=O)c1nc(-c2ccccc2)c[nH]1 | – | – | pKi [1]: 5.20
CC(C)[C@H](NC(=O)OCc1ccccc1)C(=O)N[C@@H](C)C(=O)N[C@@H](CC(=O)O)C(=O)c1ncc(-c2ccccc2)o1 | – | – | pKi [1]: 6.62
CC(C)[C@H](NC(=O)OCc1ccccc1)C(=O)N[C@@H](C)C(=O)N[C@@H](CC(=O)O)C(=O)c1nccs1 | – | – | pKi [1]: 5.00
CC(C)[C@H](NC/C=C/c1ccccc1)C(=O)N1CC(O)C[C@H]1C(=O)NC(CC(=O)O)C(=O)COc1ccccc1 (stereo partly drawn) | 7.89 | – | –
CC(C)[C@H](NC(=O)OCc1ccccc1)C(=O)N[C@@H](C)C(=O)N[C@@H](CC(=O)O)C(=O)c1ncco1 | – | – | pKi [1]: 4.89
CC(C)[C@H](NC(=O)c1ccc2ccccc2c1)C(=O)N1CCC[C@H]1C(=O)NC(C=O)CC(=O)NS(C)(=O)=O (stereo partly drawn) | – | 7.42 | –
CC(C)[C@H](NC(=O)OCc1ccccc1)C(=O)N[C@@H](C)C(=O)N[C@@H](CC(=O)O)C(=O)c1ncc[nH]1 | – | – | pKi [1]: 5.06
CC[C@@H](C(=O)NC(CC(=O)O)C(=O)CNCCc1ccccc1)n1cccc(NC(=O)c2ccc3ccccc3c2)c1=O (stereo partly drawn) | 9.43 | – | –
CC(=O)N[C@@H](Cc1ccc(O)cc1)C(=O)N[C@H](C(=O)N1CC(O)C[C@H]1C(=O)NC(C=O)CC(=O)O)C(C)C (stereo partly drawn) | – | 8.70 | –
CN1C(=O)C(=O)c2cc(S(=O)(=O)N3CCC[C@H]3COc3ccccc3)ccc21 | – | – | pKi [5]: 7.33; pKi [6]: 7.82
O=C[C@H](CC(=O)O)NC(=O)C1CCC2CCC(NC(=O)OCc3ccccc3)C(=O)N21 (stereo partly drawn) | – | 7.44 | –
O=C[C@H](CC(=O)O)NS(=O)(=O)c1ccccc1OCCc1cccc2ccccc12 | – | 7.21 | –
CC(=O)N[C@@H](Cc1ccc(O)cc1)C(=O)N[C@H](C(=O)N[C@@H](C)C(=O)NC(C=O)CCC(=O)O)C(C)C (stereo partly drawn) (Ac-YVA[ξE]-aldehyde) | – | 8.05 | –
O=C[C@H](CC(=O)O)NC(=O)[C@@H]1Cc2cccc3c2N1C(=O)[C@@H](NC(=O)c1cccc2ccccc12)CC3 | – | 8.00 | –
CC(C)[C@H](CC(=O)NCCc1cn(C)c2ccccc12)C(=O)NC(CC(=O)O)C(=O)CNS(=O)(=O)CC12CCC(CC1=O)C2(C)C (stereo partly drawn) | 9.40 | – | –

More lines, main results first:

pIC50 [1] | pKi [3] | SMILES | further results
8.77 | – | CC(C)[C@H](NC(=O)OCc1ccccc1)C(=O)N[C@@H](C)C(=O)NC(CC(=O)O)C(=O)COc1cc2ccccc2cc1C(N)=O (stereo partly drawn) | k on [2]: 430000 M⁻¹ s⁻¹
7.73 | – | CC(=O)N[C@@H](Cc1ccc(O)cc1)C(=O)N[C@H](C(=O)N[C@@H](C)C(=O)NC(CC(=O)O)C(=O)CCCCCc1ccccc1)C(C)C (stereo partly drawn) | –
– | 3.70 | CC(=O)N[C@@H](Cc1ccc(O)cc1)C(=O)N[C@H](C(=O)N[C@@H](C)C(=O)NCCC(=O)O)C(C)C (Ac-YVA[βAla]-OH) | –
8.72 | – | CC(C)[C@H](NC(=O)OCc1ccccc1)C(=O)N[C@@H](C)C(=O)NC(CC(=O)O)C(=O)COC(=O)CCc1ccccc1 (stereo partly drawn) | –
– | 9.12 | CC(=O)N[C@@H](Cc1ccc(O)cc1)C(=O)N[C@H](C(=O)N[C@@H](C)C(=O)NC(C=O)CC(=O)O)C(C)C (stereo partly drawn) | k on [4]: 380000 M⁻¹ s⁻¹
– | 8.05 | CC(=O)N[C@@H](Cc1ccc(O)cc1)C(=O)N[C@H](C(=O)N[C@@H](C)C(=O)N[C@@H](CC(=O)O)C(=O)C(=O)NCCc1ccccc1)C(C)C | –
– | 7.77 | CC(C)[C@H](NC(=O)OCc1ccccc1)C(=O)N[C@@H](C)C(=O)NC(CC(=O)O)C(=O)COc1ccc2ccc(=O)oc2c1 (stereo partly drawn) | –
8.70 | – | CC(C)[C@H](NC(=O)c1ccccc1)C(=O)N(CC(=O)NC(CC(=O)O)C(=O)c1nc2ccccc2o1)C1Cc2ccccc2C1 (stereo partly drawn) | –
